Data as given in US10005803B2, “Crystalline forms of fosnetupitant” (Helsinn Healthcare SA, priority 2015, dated 2018).
Entries after “also recorded” stand apart in the source; their conditions may differ.

Columns and labels:
[1] = Gravimetric Vapor Sorption (GVS); type: physicochemical; settings: for Overall moisture uptake: 0% to 90% RH (Form I: % w/w, whole studied RH range up to 90% RH); for Moisture uptake / gradual Wt increase: from 0% to 50% RH; for Largest Wt increase: from 70 to 90% RH; for Hygroscopicity class by GVS: weight increase at 80% RH
Protocol: 1.7.6 Gravimetric Vapor Sorption (GVS)
Approximately 20 mg of sample was placed into a wire-mesh vapor sorption balance pan and loaded into an ‘IgaSorp’ vapor sorption balance (Hiden Analytical Instruments). The sample was then dried by maintaining a 0% humidity environment until no further weight change was recorded. Subsequently, the sample was subjected to a ramping profile from 0-90% RH at 10% RH increments, maintaining the sample at each step until equilibration had been attained (99.5% step completion). Upon reaching equilibration, the % RH within the apparatus was ramped to the next step and the equilibration procedure repeated. After completion of the sorption cycle, the sample was dried using the profile from 85-5% RH at 10% RH increments same procedure. At last, the sample was dried by maintaining a 0% humidity environment until no further weight change was recorded. The weight change during the sorption/desorption cycles were then monitored, allowing the hygroscopic nature of the sample to be determined.

[2] = Stability studies at 40° C./75% RH (open vial); type: physicochemical; settings: 1 week (7 days), checked by XRPD, Raman
Protocol: The polymorphs identified were stored at 40° C./75% RH (open vial). Each sample was put in a glass vial un-capped. Analysis was carried out at 7 days by XRPD and Raman for any potential change in crystalline structure.

[3] = Protocol: The solubility of the starting compound was determined in 25 pharmaceutically acceptable solvents (class II and III) of differing polarity. The procedure was as follows:
Approximately 20 mg of material was weighed out into each glass vial.
The mixture was stirred at RT for 5-10 minutes. Visual checks were then made for solubility.
If no solubility was achieved then steps (ii) and (iii) were repeated until either the solubility was achieved or the 50 volume aliquots of that solvent were added.
Solubility was then approximated.
Solubility was finally checked at the elevated temperature (40° C.).

| Compound | Overall moisture uptake [1] | Loss of weight in absorption process ([1]; at 80% RH) [% w/w] | Moisture uptake / gradual Wt increase [1] | Largest Wt increase [1] | Hygroscopicity class by GVS [1] | Generated form (change in crystalline structure) [2] | Solubility (in words) [3] | Form change detected by GVS ([1]; sorption/desorption cycle 0-90% RH) | Sharp Wt increase in absorption ([1]; @10% RH) | Loss of weight in the absorption process ([1]; at 60% RH) [% w/w] | Moisture uptake ([1]; from 0 to 70% RH) | Gradual Wt increases, total ([1]; from 20 to 70% RH) |
| --- | --- | --- | --- | --- | --- | --- | --- | --- | --- | --- | --- | --- |
| Cc1ccccc1-c1cc(N2CC[N+](C)(COP(=O)(O)O)CC2)ncc1N(C)C(=O)C(C)(C)c1cc(C(F)(F)F)cc(C(F)(F)F)c1.Cl.[Cl-] [Form III, 4-(5-(2-(3,5-bis(trifluoromethyl)phenyl)-N,2-dimethylpropanamido)-4-(o-tolyl)pyridin-2-yl)-1-methyl-1-((phosphonooxy)methyl)piperazin-1-ium] | circa 25% | ~5.82 | circa 5.19% | circa 8.63 % w/w | very hygroscopic (>15%@80% RH) | changes in crystalline structures; also recorded: changed | – | – | – | – | – | – |
| Cc1ccccc1-c1cc(N2CC[N+](C)(COP(=O)(O)O)CC2)ncc1N(C)C(=O)C(C)(C)c1cc(C(F)(F)F)cc(C(F)(F)F)c1.Cl.[Cl-] [Form I, 4-(5-(2-(3,5-bis(trifluoromethyl)phenyl)-N,2-dimethylpropanamido)-4-(o-tolyl)pyridin-2-yl)-1-methyl-1-((phosphonooxy)methyl)piperazin-1-ium] | about 45% | – | about 5% | – | very hygroscopic (>15%@80% RH) | changes in crystalline structures; also recorded: changed | very poor solubility | No form changes were detected | – | – | – | – |
| Cc1ccccc1-c1cc(N2CC[N+](C)(COP(=O)(O)O)CC2)ncc1N(C)C(=O)C(C)(C)c1cc(C(F)(F)F)cc(C(F)(F)F)c1.Cl.[Cl-] [Form II, 4-(5-(2-(3,5-bis(trifluoromethyl)phenyl)-N,2-dimethylpropanamido)-4-(o-tolyl)pyridin-2-yl)-1-methyl-1-((phosphonooxy)methyl)piperazin-1-ium] | circa 12.75% | – | – | circa 8.63 % w/w | hygroscopic (15%>Wt increase>2%%@80% RH) | not and No change | – | – | circa 2.92 % w/w | ~0.2 | circa 4.12% | circa 1.2 % w/w |
